Test [1] concerns the target T1, proteasome Trypsin-like (T-L) activity (Mus musculus, UniProt P70195+Q9R1P1).
T1 construct: RBCs were lysed with assay lysis buffer and incubated on ice for 30 minutes; from tissue; host or cells: red blood cells of NOD/SCID mice
Put plainly: Pharmacodynamic proteasome activity in murine red blood cells, T-L. In kind it is in vivo, NOD/SCID mice. Conditions: iv, mice, 2 mg/kg i.v., time 0, read-out: Trypsin-like (T-L) mean residual activity relative to vehicle treated controls. On the procedure: Cells were harvested by centrifugation at 1,200 rpm at room temperature. Cell pellets were washed with PBS (phosphate buffered saline) and lysed with assay lysis buffer (50 mM HEPES (N-2-hydroxyethylpiperazine-N′-2-ethanesulfonic acid), pH 7.5; 150 mM NaCl; 1% Triton X-100; 2 mM ATP). Cell lysates were incubated on ice for 30 minutes, mixed by vortex every 5 minutes, and then centrifuged at 12,000 g for 10 minutes. The supernatant was transferred to a 96-well plate. For each assay, 10 μg of total protein were incubated for 1 hour at 37° C. with increasing concentrations (1 nM to 10 μM) of test compound diluted in assay buffer (50 mM tris-HCl (tris(hydroxymethyl)aminomethane-HCl), pH 7.5; 150 mM NaCl). DMSO alone was used as a control in every assay plate. After incubation, a specific fluorogenic proteasome substrate was added to each assay reaction at a final concentration of 40 μM in a total volume of 100 μL. N-Succinyl-Leu-Leu-Val-Tyr-7-amino-4-methylcoumarin (Suc-Leu-Leu-Val-Tyr-AMC) was used for measuring chymotrypsin-like (CT-L) activity, t-butoxycarbonyl-Leu-Arg-Arg-7-amino-4-methylcoumarin (Boc-Leu-Arg-Arg-AMC) for trypsin-like (T-L) activity, and benzyloxycarbonyl-L-leucyl-L-leucyl-L-glutamyl-7-amino-4-methylcoumarin (Z-Leu-Leu-Glu-AMC) for caspase-like (C-L) activity. The excitation wavelength was set at 360 nm and the fluorescence emission wavelength of AMC was detected at 460 nm. The fluorescence of free AMC released during the enzymatic reaction was measured with a SpectraMax M5 fluorescent spectrophotometric plate reader (Molecular Devices, Sunnyvale, Calif.). AMC release rate was measured at 37° C. in a kinetic mode, recording every 5 minutes for 30 minutes. Experiments were performed in triplicate and repeated at least twice.
All mouse experiments were performed in accordance with approval from the Ontario Cancer Institute institutional animal review board. Five- to six-week-old male non-obese diabetic/severe combined immunodeficient (NOD/SCID) mice were grouped randomly (n=3 mice per group). Mice were administered vehicle (5% DMSO, 20% Cremophor) or compounds of Formula I at different doses either intravenously or by oral gavage, and venous blood samples (20-50 μL) were collected from each mouse over 24 hours. Blood samples were mixed with heparin (APP Pharmaceuticals; Schaumburg, Ill.) in 0.5 mL tubes in accordance with the manufacturer's instructions. After centrifugal separation at 3,000 g for 10 minutes, red blood cells (RBCs) in the bottom layer were transferred into a new tube and stored at −70° C. until use. RBCs were lysed with assay lysis buffer and incubated on ice for 30 minutes, mixing by vortex every 5 minutes, and then centrifuged at 12,000 g for 10 minutes. The supernatant was transferred to a 96-well plate and proteasome activity was measured as described above for tumor cell lysates.
Proteasome subunit activity (Chymotrypsin-like, Trypsin-like, Caspase-like, CT-L, T-L, C-L, respectively) were monitored over the course of 24 hrs following […] administration of representative compounds of Formula I. NOD/SCID mice were treated with compounds of Formula I (2 mg/kg by iv administration) or vehicle control and carfilzomib for up to 24 hours, as described above. Table 9 summarizes the data on pharmacodynamic activity of representative compounds of Formula I following a dose of 2 mg/kg intravenous (i.v) administration to mice. Data are presented as mean residual activity (SEM) relative to vehicle treated controls.

The subject of another test is HCT-15. Put plainly: NCI screening panel, HCT-15 (Colon Cancer). In kind it is cell-based, human. On the procedure:
Representative compounds of Formula I were screened using the National Cancer Institute (NCI) screening panel, which consists of a panel of human tumor cell lines, representing leukemia, melanoma, and cancers of the lung, colon, ovary, breast, prostate and renal system.
After 24 h, two plates of each cell line are fixed in situ with TCA, to represent a measurement of the cell population for each cell line at the time of drug addition (Tz). Experimental drugs are solubilised in dimethyl sulfoxide at 400-fold the desired final maximum test concentration and stored frozen prior to use. At the time of drug addition, an aliquot of frozen concentrate is thawed and diluted to twice the desired final maximum test concentration with complete medium containing 50 μg/mL gentamicin. Additional four, 10-fold or ½ log serial dilutions are made to provide a total of five drug concentrations plus control. Aliquots of 100 μl of these different drug dilutions are added to the appropriate microtiter wells already containing 100 μl of medium, resulting in the required final drug concentrations.
Following drug addition, the plates are incubated for an additional 48 h at 37° C., 5% CO2, 95% air, and 100% relative humidity. For adherent cells, the assay is terminated by the addition of cold TCA (trichloroacetic acid). Cells are fixed in situ by the gentle addition of 50 μl of cold 50% (w/v) TCA (final concentration, 10% TCA) and incubated for 60 minutes at 4° C. The supernatant is discarded, and the plates are washed five times with tap water and air dried. Sulforhodamine B (SRB) solution (100 μl) at 0.4% (w/v) in 1% acetic acid is added to each well, and plates are incubated for 10 minutes at room temperature. After staining, unbound dye is removed by washing five times with 1% acetic acid and the plates are air dried. Bound stain is subsequently solubilised with 10 mM trizma base, and the absorbance is read on an automated plate reader at a wavelength of 515 nm. For suspension cells, the methodology is the same except that the assay is terminated by fixing settled cells at the bottom of the wells by gently adding 50 μl of 80% TCA (final concentration, 16% TCA). Using the seven absorbance measurements [time zero, (Tz), control growth, (C), and test growth in the presence of drug at the five concentration levels (Ti)], the percentage growth is calculated at each of the drug concentrations levels. Percentage growth inhibition is calculated as: [(Ti−Tz)/(C−Tz)]×100 for concentrations for which Ti>/=Tz and [(Ti−Tz)/Tz]×100 for concentrations for which Ti<Tz.
Three dose response parameters are calculated for each experimental agent. Growth inhibition of 50% (GI50) is calculated from [(Ti−Tz)/(C−Tz)]×100=50, which is the drug concentration resulting in a 50% reduction in the net protein increase (as measured by SRB staining) in control cells during the drug incubation. The drug concentration resulting in total growth inhibition (TGI) is calculated from Ti=Tz. The LC50 (concentration of drug resulting in a 50% reduction in the measured protein at the end of the drug treatment as compared to that at the beginning) indicating a net loss of cells following treatment is calculated from [(Ti−Tz)/Tz]×100=−50. Values are calculated for each of these three parameters if the level of activity is reached. However, if the effect is not reached or is exceeded, the value for that parameter is expressed as greater or less than the maximum or minimum concentration tested.

Turning to `CC(C)C[C@H](NC(=O)[C@H](COC(F)F)NC(=O)CN1CCOCC1)C(=O)N[C@@H](COC(F)F)C(=O)N[C@@H](CC(C)C)C(=O)[C@@]1(C)CO1` [Example 1, (2S)—N-[(1S)-1-(difluoromethoxymethyl)-2-[[(1S)-3-methyl-1-[(2R)-2-methyloxirane-2-carbonyl]butyl]amino]-2-oxo-ethyl]-2-[[(2S)-3-(difluoromethoxy)-2-[(2-morpholinoacetyl)amino]propanoyl]amino]-4-methyl-pentanamide], in test [1], the remaining activity at 2 mg/kg came out at 100%. Moreover, in the test with HCT-15, the Log10GI50 is −5.97, the Log10LC50 is given as above −4.00 and the Log10TGI50 is above −4.00.
In the case of `CC(C)C[C@H](NC(=O)[C@H](COC(F)F)NC(=O)[C@H](COC(F)F)NC(=O)[C@H](CCc1ccccc1)NC(=O)CN1CCOCC1)C(=O)[C@@]1(C)CO1` [Example 7, (2S)-N-[(1S)-1-(difluoromethoxymethyl)-2-[[(1S)-1-(difluoromethoxymethyl)-2-[[(1S)-3-methyl-1-[(2R)-2-methyloxirane-2-carbo-nyl]butyl]amino]-2-oxo-ethyl]amino]-2-oxo-ethyl]-2-[(2-morpholinoacetyl)amino]-4-phenyl-butanamide], in test [1], the remaining activity at 2 mg/kg was determined as 100%. Further, in the test on HCT-15, the Log10GI50 was −5.89, the Log10LC50 is above −4.00 and the Log10TGI50 is above −4.00.
`CC(C)C[C@H](NC(=O)[C@H](COC(F)F)NC(=O)CN1CCOCC1)C(=O)N[C@@H](Cc1ccccc1)C(=O)N[C@@H](CC(C)C)C(=O)[C@@]1(C)CO1` [Example 2, (2S)-N-[(1S)-1-benzyl-2-[[(1S)-3-methyl-1-[(2R)-2-methyloxirane-2-carbonyl]butyl]-amino]-2-oxo-ethyl]-2-[[(2S)-3-(difluoromethoxy)-2-[(2-morpholinoacetyl)amino]propanoyl]amino]-4-methyl-pentanamide]: the remaining activity at 2 mg/kg in test [1] worked out at 100%. Besides, in the test on HCT-15, the Log10GI50 was −6.40, the Log10LC50 is listed as above −4.00 and the Log10TGI50 was −4.66.
For `CC(C)C[C@H](NC(=O)[C@H](COC(F)F)NC(=O)[C@H](COC(F)F)NC(=O)[C@H](COC(F)F)NC(=O)CN1CCOCC1)C(=O)[C@@]1(C)CO1` [Example 17, (2S)-3-(difluoromethoxy)-N-[(1S)-1-(difluoromethoxymethyl)-2-[[(1S)-1-(difluoro-methoxymethyl)-2-[[(1S)-3-methyl-1-[(2R)-2-methyloxirane-2-carbonyl]butyl]amino]-2-oxo-ethyl]amino]-2-oxo-ethyl]-2-[(2-mor-pholinoacetyl)amino]-propanamide] the same measures were 100%, −5.28, above −4.00 and above −4.00.
`CC(C)C[C@H](NC(=O)[C@H](COC(F)F)NC(=O)CN1CCOCC1)C(=O)N[C@@H](COC(F)F)C(=O)N[C@@H](Cc1ccccc1)C(=O)[C@@]1(C)CO1` [Example 4, (2S)-N-[(1S)-2-[[(1S)-1-benzyl-2-[(2R)-2-methyloxiran-2-yl]-2-oxo-ethyl]amino]-1-(difluoromethoxymethyl)-2-oxo-ethyl]-2-[[(2S)-3-(difluoromethoxy)-2-[(2-mor-pholinoacetyl)amino]propanoyl]amino]-4 methyl-pentanamide]: the remaining activity at 2 mg/kg in test [1] worked out at 100%. In the test on HCT-15, this molecule had a Log10GI50 of −5.91, a Log10LC50 above −4.00 and a Log10TGI50 of −4.62.
`CC(C)C[C@H](NC(=O)[C@H](Cc1ccccc1)NC(=O)[C@H](COC(F)F)NC(=O)[C@H](COC(F)F)NC(=O)CN1CCOCC1)C(=O)[C@@]1(C)CO1` [Example 11, (2S)-2-[[(2S)-3-(difluoromethoxy)-2-[[(2S)-3-(difluoromethoxy)-2-[(2-morpholinoacetyl)-amino]propanoyl]amino]propanoyl]amino]-N-[(1S)-3-methyl-1-[(2R)-2-methyloxirane-2-carbonyl]butyl]-3-phenyl-propanamide]: the remaining activity at 2 mg/kg in test [1] came out at 100%. For the same molecule, in the test on HCT-15, the Log10GI50 was −6.00, the Log10LC50 is listed as above −4.00 and the Log10TGI50 is reported as −4.42.
In the same order, the values of `CC(C)C[C@H](NC(=O)[C@H](COC(F)F)NC(=O)CN1CCOCC1)C(=O)N[C@@H](Cc1ccccc1)C(=O)N[C@@H](Cc1ccccc1)C(=O)[C@@]1(C)CO1` [Example 3, (2S)-N-[(1S)-1-benzyl-2-[[(1S)-1-benzyl-2-[(2R)-2-methyloxiran-2-yl]-2-oxo-ethyl]amino]-2-oxo-ethyl]-2-[[(2S)-3-(difluoromethoxy)-2-[(2-morpholinoacetyl)-amino]propanoyl]amino]-4-methyl-pentan-amide] are 100%, −6.51, above −4.00 and above −4.00.

Values taken from patent US20150218212A1, “FLUORINATED EPOXYKETONE-BASED TETRAPEPTIDE COMPOUNDS AND USES THEREOF AS PROTEASOME INHIBITORS” (FLUORINOV PHARMA INC., priority 2012, published 2015).
